Measurements: patent US20060040870A1, “Enhancement of apoptosis by caspase-9 inhibitors” (priority 2004, published 2006)
The star is where a group is joined. Cbz = O=C(OCc1ccccc1)*; CH2F = FC*

Columns and labels:
[1] = tested on: leukemia/lymphoma cells; assay: Pro-apoptotic activity of caspase inhibitor sequences (Table 2); type: cell-based; design: key: “−” is no activity; ++++ is maximum activity
From the text: Caspases are constitutively express in cells, and are usually in their pro-form. In response to an incident, such as irradiation or chemotherapy, the pro-form of the caspase is converted into the activated state. Certain compounds are known that can inhibit caspases. For example, the pan-caspase (PCi) VAD can block all caspases. […] For example, C2i inhibits caspase-2. This particular inhibitor is very dose dependent.

[2] = tested on: caspase-9 deficient BLIN-4L; assay: Apoptotic sensitivity of BLIN-4L made deficient in caspase-9 by siRNA, Annexin V; conditions: Annexin V+ events minus DMSO
[3] = tested on: CD19+ B-cell precursors; assay: Annexin V staining of sorted cord blood-derived CD19+ B-cell precursors removed from MS-5 stroma; type: cell-based, human; conditions: cultured 18 hours, DMSO control 46.5 ± 1.4, Time 0 1.5
Method: Normal B-lineage cells. CD19+ B-lineage cells were derived from CD34+ human cord blood stem cells plated on the murine stromal cell line MS-5 (Itoh Exp Hematol. 1989;17:145-153). MS-5 stromal cells were kindly provided by Dr. Paul Kincade (University of Oklahoma Medical Research Foundation), following permission from Professor K. John Mori (Niigata University, Japan). FACS-purified CD34+/CD38+/lineage—cord blood hematopoietic stem cells were plated onto confluent, non-irradiated MS-5 stromal cells in 96-well flat-bottom plates (200 cells/well) containing Minimal Essential Medium supplemented with 10% FBS. Stem cell factor and G-CSF were added at 10 ng/ml (twice weekly) to enhance the emergence of CD19+ B-lineage cells (Nishihara Eur J Immunol. 1998;28:855-864; Ohkawara Leukemia. 1998;12:764-771). […] Wells were then pooled, stained with PE-conjugated anti-CD 19 + propidium iodide (PI), and sorted on a FACSVantage (BD Immunocytometry Systems, San Jose, Calif.). Cord blood CD34+/CD38+/lineage—cells were provided by Valerie McCullar and Dr. Jeff Miller of the University of Minnesota Cancer Center in accordance with the University of Minnesota Institutional Review Board on Human Subjects.
Flow cytometry. Quantitation of apoptotic events was conducted using a FACS Calibur (BD Immunocytometry Systems). […]

[4] = tested on: CD33+ myeloid cells; assay: Annexin V staining of sorted cord blood-derived CD33+ myeloid cells removed from MS-5 stroma; type: cell-based, human; conditions: cultured 18 hours, DMSO control 27.9 ± 3.9, Time 0 <10
[5] = tested on: BLIN-3 cells; assay: Apoptosis by Annexin V staining and flow cytometry, BLIN-3; type: cell-based, human; conditions: BLIN-3 removed from adherent fibroblasts, 50 μM
Method: (§1) Flow cytometry. Quantitation of apoptotic events was conducted using a FACS Calibur (BD Immunocytometry Systems). All analyses were conducted on cells with lymphoid light scatter characteristics (i.e., low to medium forward scatter and low 90° side scatter).
(§2) iii. Annexin V. FITC-labeled Annexin V (BD Pharmingen, San Diego, Calif.) was used to detect external phosphatidylserine residues appearing on the external surface of early apoptotic cells (Koopman Blood. 1994;84:1415-1420). Cells were stained according to the manufacturers recommendations.
(§3) General experimental strategy. BLIN cell lines were removed from fibroblast monolayers, washed once and resuspended to 7.5×10^5/ml in X-VIVO 10. Two hundred μL of resuspended cells were added to 96-well flat-bottom microtiter plates (ISC Bioexpress, Kaysville, Vt.), followed by 0.5-1.0 μL of caspase inhibitors in DMSO. An identical volume of DMSO alone was added to separate wells as a vehicle control. This final DMSO concentration of 0.25-0.5% vol/vol had no adverse affect on any of the BLIN cell lines. At the indicated times the entire content of individual wells was harvested and stained in the fluorescent protocols described above.
The inventors carried out experiments to test the influence of specific amino acid substitutions on the proapoptotic activity Z-LEHD-fmk. Cells were cultured for 24 hours with various μM concentrations of Z-LEDH-fmk or single amino acid substitution of the parent peptide. All values in the following Table 3 represent the percentage of total Annexin V+ cells (PI+ and PI−) minus the percentage present in culture with DMSO alone (BLIN-2=3%; BLIN-3+7%; BLIN4L=5%).

[6] = tested on: BLIN-3 cells; assay: Loss of mitochondrial transmembrane potential (TMRE) and YO-PRO permeability in BLIN-3; type: cell-based, human; conditions: BLIN-3 removed from adherent fibroblasts, 50 μM, compared to DMSO
Method: Numbers in the histograms indicate the percentage of PI^- cells that underwent a loss of Δψm. Numbers in the contour plots indicate the percentage of Annexin V^+/PI^- cells. […] Numbers in the contour plots indicate the percentage of YO^- PRO^+/PI^- cells. Numbers in the histograms indicate the percentage of PI^- cells that underwent a loss of Δψm. Flow cytometry. Quantitation of apoptotic events was conducted using a FACS Calibur (BD Immunocytometry Systems). All analyses were conducted on cells with lymphoid light scatter characteristics (i.e., low to medium forward scatter and low 90° side scatter). i. Mitochondrial transmembrane potential (Δψm). The cationic lipophilic fluorescent dye tetramethylrhodamine, ethyl ester, perchlorate (TMRE) was purchased from Molecular Probes, Inc. (Eugene, Oreg.). TMRE has a high degree of membrane permeability and accumulates into mitochondria in accord with the Nernstian equation (Farkas Biophys J. 1989;56:1053-1069). Cells were washed once and re-suspended to 0.5-1.0×10^6/ml in X-VIVO 10. TMRE was added to a final concentration of 50 nM and the cells were incubated in the dark at 37° C. for 15 minutes. […] ii. YO-[…]. The green fluorescent DNA intercalant dye YO-PRO-1 (Idziorek J Immunol Methods. 1995;185:249-258) was purchased from Molecular Probes as the Vybrant Apoptosis Assay Kit #4. […]

[7] = tested on: PARP (caspase-3/caspase-7 substrate); assay: Western blotting of PARP cleavage in BLIN-3 and BLIN-4L; type: cell-based, human; conditions: overnight incubation of BLIN-3 and BLIN-4L cells, 50 μM
Method: Western blotting. This method was conducted essentially as previously described.^20 The antibodies used were: rabbit anti-caspase-2 (catalog # sc-625, Santa Cruz Biotechnology Inc., Santa Cruz, Calif.), rabbit anti-caspase-3 (catalog # 9661, Upstate Cell Signaling Solutions, Waltham, Mass.), rabbit anti-caspase-6 (catalog # 9761, Upstate), rabbit anti-caspase-9 (catalog # 9502, Upstate), mouse anti-PARP (catalog # 556494, Pharmingen), and rabbit anti-Bid (catalog # AF846, R&D Systems). The antibodies to caspase-2 and caspase-9 were generated to the procaspase isoforms, whereas the antibodies to caspase-3 and caspase-6 were generated to cleavage products.
As expected, inclusion of 50 μM PCi had no effect. The degree of PARP cleavage in the presence of C9i (greater in BLIN-3 than BLIN-4L) correlated with the percentage of Annexin V+ cells (FIG. 3).

[8] = tested on: BLIN cell lines; assay: Enhancement of apoptosis in BLIN cell lines (flow cytometry); type: cell-based, human; conditions: BLIN cell lines
Method: as §1
i. Mitochondrial transmembrane potential (Δψm). The cationic lipophilic fluorescent dye tetramethylrhodamine, ethyl ester, perchlorate (TMRE) was purchased from Molecular Probes, Inc. (Eugene, Oreg.). TMRE has a high degree of membrane permeability and accumulates into mitochondria in accord with the Nernstian equation (Farkas Biophys J. 1989;56:1053-1069). Cells were washed once and re-suspended to 0.5-1.0×10^6/ml in X-VIVO 10. TMRE was added to a final concentration of 50 nM and the cells were incubated in the dark at 37° C. for 15 minutes. Cells were then washed 2× in PBS, resuspended in PBS containing 2 μg/ml of propidium iodide (PI), and immediately analyzed. The protonophore […] (50 μM, CCCP, Sigma) was used as a positive control to effect loss of Δψm in 100% of cells.
ii. YO-PRO-1. The green fluorescent DNA intercalant dye YO-PRO-1 (Idziorek J Immunol Methods. 1995;185:249-258) was purchased from Molecular Probes as the Vybrant Apoptosis Assay Kit #4. Dual staining with YO-PRO and PI allows for the detection of early apoptotic cells (YO-PRO+/PI−) that have undergone initial changes in permeability to small molecules. Cells were stained according to the manufacturers recommendations.
as §2, §3

| Compound | Pro-apoptotic Activity (after 24 hours) [1] | further results |
| --- | --- | --- |
| LEHD [C91/ΔFMK] | − |  |
| Cbz-VDVAD-CH2F [C2i, reference compound] | − |  |
| LEED (printed: Leu-Glu-Glu-Asp) [C9i/H > E, variant of Z-LEHD-fmk, Leu-Glu-Glu-Asp] | − |  |
| WEHD (printed: Trp-Glu-His-Asp) [C9i/L > W, variant of Z-LEHD-fmk, Trp-Glu-His-Asp] | ++++ |  |
| CN[C@@H]1C[C@H]2O[C@@](C)([C@@H]1OC)n1c3ccccc3c3c4c(c5c6ccccc6n2c5c31)C(=O)NC4 [staurosporine] |  | apoptotic response of caspase-9 deficient BLIN-4L compared with control siRNA treated cells [2]: significantly more sensitive |
| LEAD [C9i/H > A] | − |  |
| Z-DEVD-fmk [C3i, reference compound] | − |  |
| Z-VAD-fmk [PCi, reference compound] | − | percentage of total Annexin V+ cells (PI+ and PI−), mean ± SD [3]: 39.5 ± 1.8 %; percentage of total Annexin V+ cells (PI+ and PI−), mean ± SD [4]: 18.0 ± 3.9 %; appearance of Annexin V+ cells [5]: completely blocked; loss of Δψm (TMRE) [6]: did not prevent loss of Δψm; cleavage of the caspase-3/caspase-7 substrate PARP [7]: had no effect; enhancement of apoptosis [8]: did not enhance apoptosis |
| COc1cc([C@@H]2c3cc4c(cc3[C@@H](O[C@@H]3O[C@@H]5CO[C@@H](C)O[C@H]5[C@H](O)[C@H]3O)[C@H]3COC(=O)[C@H]23)OCO4)cc(OC)c1O [etoposide] |  | apoptotic response of caspase-9 deficient BLIN-4L compared with control siRNA treated cells [2]: no difference |
| Cbz-VEID-CH2F [C6i, reference compound] | − |  |
